Results reported in patent US8772227B2, “Glucosamine pro-drug” (priority 2011, dated 2014).

Assays:
[1] = Chemical stability (60° C. oven for 48 h); type: physicochemical; details: 60° C. for 48 h; <96% considered unstable
Experimental: Compounds were transferred into transparent glass vials and placed in 60° C. oven for 48 h. Compound with <96% stability are considered unstable.

[2] = Stability in the gut (incubation with homogenized rat stomach or intestine); type: in vitro ADME; details: incubated with homogenized rat stomach (pH 1.0) or intestine (pH 7.4); read-out: t1/2 of decomposition in the presence of rat gut
Experimental: (§1) Pro-drugs were incubated for 2 h with homogenized rat stomach or intestine while the pH is kept at 1.0 or 7.4, respectively. Samples are taken at 30 min interval for the analysis of the pro-drug and GlcN. This procedure was used as a prerequisite to further tests described in Examples 6, 7 and 8. A compound with low stability under this condition was decided to be unsuitable for further test. […] Everted rat gut sacks are immersed in 80 μg/mL (GlcN equivalent) of GlucN HCl or GV-GluN HCl solution. The appearance of glucosamine each compound inside the sack (serosal) was measured. […] Gly-Val-COO-GlcN is GV-GlycN.

[3] = Absorption through everted rat gut; type: in vitro ADME
Experimental: as §1
A mid line incision was made in the anesthetised rat abdomen, the intestine was exposed and five 10 cm segments of the jejunum are cut. In ice cold Krebs Henseleit buffer, the intestinal content are removed and each segment are everted over a glass rod, tied from one side, a polyethylene tube is inserted into the other side and tied. The segments are filled with buffer and incubated in a perfusion apparatus containing oxygenated Krebs Henseleit buffer at 37° C. The test compound was added to the mucosal (outer surface of the everted gut) and serial samples were collected from both sides. The percent of the movement from outside (mucosal) to inside (serosal) was measured and compared (FIG. 4). […]

[4] = Bioavailability in the rat (plasma GlcN AUC after oral dose); type: in vivo
Experimental: Prodrugs or GlcN HCl or sulphate were administered to rats in single oral doses equivalent to a fix amount of GlcN. Plasma GlcN concentrations were measured using HPLC in serial sample collected over a period of time. The areas under plasma-concentration-time curves (AUC or relative bioavailability) were calculated and compared (FIGS. 5 and 5a).

[5] = test system: adjuvant arthritis caused by Mycobacterium butyricum; test: Efficacy against adjuvant arthritis; type: in vivo; details: for preventing effect on emergence of adjuvant arthritis: daily doses from day 0, GlcN HCl 90 mg, GV-GlcN 30 mg glucosamine equivalent, FIG. 6; for paw thickness after treatment of established adjuvant arthritis: four days of daily doses from day 14, GlcN 90 mg/kg, GV-GlcN 30 mg/kg GlcN equivalent, FIG. 7
Experimental: Under anesthesia, rats were injected with 0.2 ml of 50 mg/ml Mycobacterium butyricum suspended in squalene in the base of the tail (day 0). Their paw thickness was measure daily. Within 12-14 days significant increases in paw thickness were noticed, indicative of the emergence if adjuvant arthritis. Repeated daily doses of drugs were administered either right after the time of Mycobacterium injection (to prevent emergence of arthritis) or after the appearance of arthritis (to treat arthritis). Animals were monitored for their arthritis status during the entire length of the experiment.
On day zero, Mycobacterium butyricum is injected to all rats along with daily doses of glucosamine, GV-GlnN or placebo. The placebo group develops severe AA but not the ones that received either treatment. Upon discontinuation of the treatments, AA emerges (FIG. 6).

[6] = oral administration, reference (23); cited from earlier work

Structure (SMILES)	physicochemical stability (percent stable) [1]	half-life [2]	stability after exposure to the gut (no conversion into glucosamine) ([3]; 60 minutes exposure, FIG. 4)	transport across everted rat gut ([3]; mucosal to serosal)	area under the plasma glucosamine concentration-time curve compared with GlcN ([4]; 110 mg/kg (GlcN equivalent), FIG. 5A, n=3-5/group)	mean AUC (bioavailability) of GlcN in rat plasma compared with GlcN HCl ([4]; oral, 110 mg GlcN equivalent, FIG. 5, AUC(0-4))	preventing effect on emergence of adjuvant arthritis [5]	paw thickness after treatment of established adjuvant arthritis [5]	paw thickness after treatment of established adjuvant arthritis ([5]; listed as GV-GluN)	paw thickness after treatment of established adjuvant arthritis ([5]; listed as GlcN HCl)	AUC of GlcN after oral HCl versus sulphate salt [6]
CC(C)C(NC(=O)CN)C(=O)OCC1OC(O)C(N)C(O)C1O (stereo not shown) [GV-GlcN, (5-amino-3,4,6-trihydroxyoxan-2-yl)methyl 2-(2-aminoacetamido)-3-methylbutanoate]	> 96%	> 16 h	greater than 96%	~80%	significantly greater than GlcN	significantly and substantially greater	prevent the disease	significantly reduce the paw thickness	Significant (p>0.05) reduced paw thickness	–	–
N[C@H]1C(O)O[C@H](CO)[C@@H](O)[C@@H]1O (stereo partly shown) [GlcN, Glucosamine]	–	–	–	–	–	–	prevent the disease	significantly reduce the paw thickness	–	Significant (p>0.05) reduced paw thickness	–
N[C@H]1C(O)O[C@H](CO)[C@@H](O)[C@@H]1O.N[C@H]1C(O)O[C@H](CO)[C@@H](O)[C@@H]1O.O=S(=O)(O)O (stereo partly shown) [GlcN sulfate]	–	–	–	–	–	–	–	–	–	–	equal AUC values
